Experimental data as given in patent US20250304594A1, “METHYL (R)-2-(FLUOROMETHYL)-5-OXO-4-PHENYL-4,5,6,7-TETRAHYDRO-1H-CYCLOPENTA[B]PYRIDINE-3-CARBOXYLATE AND METHYL (R)-2-(FLUOROMETHYL)-5-OXO-4-PHENYL-1,4,5,7-TETRAHYDROFURO[3,4-B]PYRIDINE-3-CARBOXYLATE AS Cav1,2 ACTIVATORS” (Novartis AG, priority 2020, published 2025).

System: cFos mRNA
Test: cFos mRNA induction in cortex of wild-type mice (PK-PD)
Assay type: in vivo, C57BL/6J male mice
Conditions: one hour after administration
Protocol: Assessment of Compound Exposure—cFos Induction (PK-PD) Relationship in Wild-Type Mice
Compound administration and brain tissue collection. Wild-type C57BL/6J male mice were obtained from Jackson laboratories (Bar Harbor, ME). The acute, single-dose effects of CaV1.2 activators of the present disclosure were evaluated in male eight-week old mice (n=6 mice per compound). Each compound was dissolved in 10% PEG300, 10% Solutol, 10% Cremophore EL, and 70% Phosphate Buffered Saline and administered intraperitoneal (i.p.) at a concentration of 1 mg/kg up to 30 mg/kg depending on the compound. Animals were euthanized one hour after compound administration via exsanguination under deep anesthesia. Blood was collected in EDTA tubes for downstream analysis of drug levels. Brains were rapidly removed from the skull, and the cerebral cortex and cerebellum were regionally dissected. Cerebellar samples were snap frozen in liquid nitrogen to assess compound exposure. Cortical samples for cFos assessment were placed in 500 μl of RNAlater solution (ThermoFisher) to preserve the integrity of RNA in the sample. Samples remained in RNAlater for at least 24 hours at 4° C. before moving to −80° C. for storage before processing.
Quantification of cFos mRNA induction. Tissue homogenization was performed using TissueLyser system for 96 well plates (Qiagen). First, frozen cortical samples were thawed, removed from RNAlater, and placed into TissueLyser tubes along with Buffer RLT containing 0.5% Reagent DX and one 5 mm TissueLyser metal bead. The TissueLyser tubes were loaded into a TissueLyser II tissue homogenizer for 3 rounds of homogenization, with each round lasting 5 minutes at 30 Hz bead-beating frequency. Total RNA was purified from the homogenate using RNeasy 96 Plus kit (Qiagen), RNA concentration and A260/A280 ratio were quantified via the Nanodrop (ThermoFisher), and all samples were normalized to 100 ng/μL concentration. RNA was reverse transcribed into cDNA using the Superscript III First-strand synthesis SuperMix Kit (ThermoFisher). For each sample, 6 μL of RNA (600 ng total) was mixed with 1 μL of Oligo dT and 1 μl of annealing buffer and heated to 65° C. for 5 minutes. Next, 10 μL of 2× First-Strand Reaction Mix and 2 μl of the Enzyme mix were added to achieve a total reaction volume of 20 μL. The samples were heated to 50° C. for 50 minutes then 85° C. for 5 minutes to complete cDNA synthesis.
Quantitative PCR was performed on the cDNA samples using Quantitect Multiplex RT-PCR kit (Qiagen) in a 384-well assay format. Each PCR well contained 2 μl of cDNA (60 ng total), 10 μL of RT-PCR mastermix, 1 μL of cFos FAM Taqman probe (Mm00487425_m1 (FAM) #4351368), 1 μL of GAPDH VIC Taqman probe (Mm99999915-g1 (VIC) #4448486), 0.2 μl of Multiplex RT mix and 5.8 μl of RNase-free water. On the ViiA7 Real-Time PCR system (ThermoFisher), the samples were heated to 95° C. for 15 minutes then cycled between 94° C. for 45 seconds and 60° C. for 45 seconds for 45 cycles. cFos Ct values were exported, normalized to GAPDH Ct values, and converted to relative fold change in expression using the delta-delta Ct relative quantification method. cFos fold changes between compound treatments and vehicle were analyzed by one-way ANOVA, followed by Tukey's post-hoc comparisons.

| SMILES | %↑cFOS mRNA cortex (3 mg/kg ip) | %↑cFOS mRNA cortex (10 mg/kg ip) |
| --- | --- | --- |
| COC(=O)C1=C(CF)NC2=C(C(=O)OC2)[C@H]1c1cc(F)cc(F)c1[C@H]1CC1(F)F (single isomer, unassigned) [Example 3, Methyl (R)-4-(2-((R or S)-2,2-difluorocyclopropyl)-3,5-difluorophenyl)-2-(fluoromethyl)-5-oxo-1,4,5,7-tetrahydrofuro[3,4-b]pyridine-3-carboxylate] | 204% | – |
| COC(=O)C1=C(CF)NC2=C(C(=O)CC2)[C@H]1c1cccc(F)c1[C@@H](F)CF (single isomer, unassigned) [Example 7, methyl (R)-4-(2-((R or S)-1,2-difluoroethyl)-3-fluorophenyl)-2-(fluoromethyl)-5-oxo-4,5,6,7-tetrahydro-1H-cyclopenta[b]pyridine-3-carboxylate] | 262% | – |
| COC(=O)C1=C(CF)NC2=C(C(=O)OC2)[C@H]1c1cccc(F)c1C1CC1 (single isomer, unassigned) [Example 2] | 378% | – |
| COC(=O)C1=C(CF)NC2=C(C(=O)OC2)[C@H]1c1cc(F)cc(F)c1C1CC1 (single isomer, unassigned) [Example 13] | 225% | 444% |
| COC(=O)C1=C(CF)NC2=C(C(=O)OC2)[C@H]1c1cc(F)cc(F)c1C(F)(F)F (single isomer, unassigned) [Example 10] | 225% | – |
| COC(=O)C1=C(CF)NC2=C(C(=O)OC2)[C@H]1c1cccc(F)c1[C@H]1CC1(F)F (single isomer, unassigned) [Example 1, methyl (R)-4-(2-((R or S)-2,2-difluorocyclopropyl)-3-fluorophenyl)-2-(fluoromethyl)-5-oxo-1,4,5,7-tetrahydrofuro[3,4-b]pyridine-3-carboxylate] | 254% | – |
| COC(=O)C1=C(CF)NC2=C(C(=O)OC2)[C@H]1c1ccccc1OC(F)F (single isomer, unassigned) [Example 9] | 290% | 525% |
| COC(=O)C1=C(CF)NC2=C(C(=O)OC2)[C@H]1c1cccc(F)c1[C@H](F)CF (single isomer, unassigned) [Example 6] | 199% | – |
| COC(=O)C1=C(CF)NC2=C(C(=O)OC2)[C@H]1c1cccc(F)c1CC(F)F (single isomer, unassigned) [Example 11] | 160% | – |
| COC(=O)C1=C(CF)NC2=C(C(=O)OC2)[C@H]1c1cc(F)cc(F)c1[C@H](F)CF (single isomer, unassigned) [Example 16, methyl (R)-4-(2-((R or S)-1,2-difluoroethyl)-3,5-difluorophenyl)-2-(fluoromethyl)-5-oxo-1,4,5,7-tetrahydrofuro[3,4-b]pyridine-3-carboxylate] | 234% | – |
| COC(=O)C1=C(CF)NC2=C(C(=O)OC2)[C@H]1c1cc(F)cc(F)c1[C@H](C)F (single isomer, unassigned) [Example 5, methyl (R)-4-(3,5-difluoro-2-((R or S)-1-fluoroethyl)phenyl)-2-(fluoromethyl)-5-oxo-1,4,5,7-tetrahydrofuro[3,4-b]pyridine-3-carboxylate] | 400% | – |
| COC(=O)C1=C(CF)NC2=C(C(=O)OC2)[C@H]1c1cc(F)cc(F)c1[C@H]1CC1(F)F (single isomer, unassigned) [Example 4, Methyl (R)-4-(2-((R or S)-2,2-difluorocyclopropyl)-3,5-difluorophenyl)-2-(fluoromethyl)-5-oxo-1,4,5,7-tetrahydrofuro[3,4-b]pyridine-3-carboxylate] | 161% | – |
| COC(=O)C1=C(CF)NC2=C(C(=O)OC2)[C@H]1c1cc(F)ccc1C(F)(F)F (single isomer, unassigned) [Example 23] | 365% | – |
| COC(=O)C1=C(CF)NC2=C(C(=O)OC2)[C@H]1c1cccc(F)c1[C@@H](C)F (single isomer, unassigned) [Example 8] | 496% | – |
| COC(=O)C1=C(CF)NC2=C(C(=O)OC2)[C@H]1c1cccc(F)c1C(F)(F)F (single isomer, unassigned) [Example 17] | 201% | – |
| COC(=O)C1=C(CF)NC2=C(C(=O)OC2)[C@H]1c1cc(F)cc(F)c1C(F)F (single isomer, unassigned) [Example 18] | 173% | 280% |
| COC(=O)C1=C(CF)NC2=C(C(=O)CC2)[C@H]1c1cccc(F)c1C1CC1 (single isomer, unassigned) [Example 28] | 293% | – |
| COC(=O)C1=C(CF)NC2=C(C(=O)OC2)[C@H]1c1cccc(F)c1C(F)F (single isomer, unassigned) [Example 15] | 176% | 294% |
